Experimental data as given in paper PMC6838013, “Insight Into Mosquito GnRH-Related Neuropeptide Receptor Specificity Revealed Through Analysis of Naturally Occurring and Synthetic Analogs of This Neuropeptide Family” (Frontiers in Endocrinology, 2019).
Where “and” joins values, the source holds several entries; their conditions need not be identical. Identical values can stand only once. Non-standard residues stand in square brackets, D forms with d. Residues, ends and D or L forms follow the SMILES beside them. pGlu = O=C1CC[C@@H](C(=O)O)N1

Assays:
[1] = tested on: A. aegypti ACP receptor (AedaeACPR); experiment: Calcium bioluminescence (aequorin) reporter assay of heterologously expressed ACPR; format: cell-based, Aedes aegypti; conditions: for Fold-reduction in activity relative to AedaeACP: ACPR in CHO-K1 aequorin cells, relative to native Aedae-ACP; for EC50: CHO-K1 cells stably expressing aequorin, transiently transfected with ACPR and murine Gα15 (pBudCE4.1), luminescence 20 s, 3 to 4 independent biological replicates, ND = no determined EC50 due to minimal or no detectable activity up to 10 μM; for Activity on ACPR at the highest tested dose, in words: 10 μM, Figure 2, ANOVA and Tukey post-test
Source text: Therefore, to improve the bioluminescent signal linked to calcium mobilization following receptor activation, which was required in order to provide greater signal to noise ratio when testing ACP analogs with substitutions leading to intermediate levels of activation of the ACPR, we created a new mammalian expression construct using the dual promoter vector, pBudCE4.1. Specifically, we utilized a cloning strategy as reported previously ([41]) whereby the ACPR was inserted into the multiple cloning site (MCS) downstream of the CMV promoter in pBudCE4.1 using the sense primer SalI-KozakACPR, 5′-[…]-3′ and anti-sense primer XbaI-ACPR, 5′-[…]-3′, which directionally inserted the ACPR within the MCS downstream of the CMV promoter. Secondly, the murine homolog (Gα15) of the human promiscuous G protein, Gα16, which indiscriminately couples a wide variety of GPCRs to calcium signaling ([42]) was inserted into the MCS downstream of the EF1-α promoter in pBudCE4.1 using the sense primer NotI-Gα15, 5′-[…]-3′ and anti-sense primer BglII-Gα15, 5′-[…]-3′, which directionally inserted the murine Gα15 within the MCS downstream of the EF1-α promoter.
(§1) Functional activation of the AedaeACPR and AedaeAKHR-IA receptors was carried out following a previously described mammalian cell culture system involving a Chinese hamster ovary (CHO)-K1 cell line stably expressing aequorin ([43]). Cells were grown in DMEM:F12 media containing 10% heat-inactivated fetal bovine serum (Wisent, St. Bruno, QC), 200 μg/mL Geneticin, 1x antimycotic-antibiotic to approximately 90% confluency, and were transiently transfected using either Lipofectamine LTX with Plus Reagent or Lipofectamine 3000 transfection systems (Invitrogen, Burlington, ON) following manufacturer recommended DNA to transfection reagent ratios. Cells were detached from the culture flasks at 48 h post-transfection using 5 mM EDTA in Dulbecco's PBS. Cells were then prepared for the receptor functional assay following a procedure described previously ([27]). Stocks of peptide analogs of ACP and AKH were used for preparation of serial dilutions all of which were prepared in assay media (0.1% BSA in DMEM:F12) and loaded in quadruplicates into 96-well white luminescence plates (Greiner Bio-One, Germany). Cells were loaded with an automatic injector into each well of the plate containing different peptide analogs at various concentrations as well as negative control (assay media alone) and positive control wells (50 μM ATP). Immediately after injection of the cells, luminescence was measured for 20 s using a Synergy 2 Multi-Mode Microplate Reader (BioTek, Winooski, VT, USA). Calculations, including determination of EC50 values, were conducted in GraphPad Prism 7.02 (GraphPad Software, San Diego, USA) from dose-response curves from 3 to 4 independent biological replicates.

[2] = target: A. aegypti AKHR-IA receptor (AKHR-IA) (Aedes aegypti, UniProt A0A2P1A8S4); experiment: Calcium bioluminescence (aequorin) reporter assay of heterologously expressed AKHR-IA; format: cell-based; conditions: for Fold-reduction in activity relative to Aedae-AKH: AKHR-IA in CHO-K1 aequorin cells, relative to native Aedae-AKH; for EC50: CHO-K1 cells stably expressing aequorin, transiently transfected with AKHR-IA (pcDNA3.1+), luminescence 20 s, 3 to 4 independent biological replicates, ND = no determined EC50 due to minimal or no detectable activity up to 10 μM
Procedure: For each construct, an overnight liquid culture of clonal recombinant bacteria containing the appropriate plasmid construct was grown in antibiotic-containing LB media and used to isolate midiprep DNA using the PureLink Midiprep kit (Life Technologies, Burlington, ON). Midiprep samples were then quantified and sent for sequencing as described previously ([26], [27]).
as §1

Sequence of A. aegypti AKHR-IA receptor (AKHR-IA) (A0A2P1A8S4 1-410): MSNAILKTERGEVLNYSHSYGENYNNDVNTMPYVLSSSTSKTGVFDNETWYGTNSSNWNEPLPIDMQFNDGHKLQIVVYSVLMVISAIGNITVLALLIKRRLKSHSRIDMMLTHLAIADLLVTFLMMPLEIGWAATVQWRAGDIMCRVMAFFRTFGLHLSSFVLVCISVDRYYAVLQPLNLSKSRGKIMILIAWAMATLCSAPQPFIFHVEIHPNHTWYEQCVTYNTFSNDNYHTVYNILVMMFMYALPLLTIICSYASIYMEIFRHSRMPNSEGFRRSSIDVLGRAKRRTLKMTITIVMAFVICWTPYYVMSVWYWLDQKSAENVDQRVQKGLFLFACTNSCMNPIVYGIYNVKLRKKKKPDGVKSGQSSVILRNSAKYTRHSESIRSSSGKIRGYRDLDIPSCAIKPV

Molecule | Fold-reduction in activity relative to AedaeACP [1] | EC50 [1] [nM] | also measured
CC(C)[C@H](NC(=O)[C@@H]1CCC(=O)N1)C(=O)N[C@H](C(=O)N[C@@H](Cc1ccccc1)C(=O)N[C@@H](CO)C(=O)N[C@@H](CCCNC(=N)N)C(=O)N[C@@H](CC(=O)O)C(=O)N[C@@H](Cc1c[nH]c2ccccc12)C(N)=O)[C@@H](C)O [Aedae-ACP (1-8)] ([pGlu]VTFSRDW-NH2) | 410.1 fold | 2160 | –
CC(C)[C@H](NC(=O)[C@@H]1CCC(=O)N1)C(=O)N[C@H](C(=O)N[C@@H](Cc1ccccc1)C(=O)N[C@@H](CO)C(=O)N[C@@H](CCCNC(=N)N)C(=O)N[C@@H](CC(=O)O)C(=O)N[C@@H](Cc1c[nH]c2ccccc12)C(=O)N[C@@H](CC(N)=O)C(N)=O)[C@@H](C)O [Aedae-ACP (1-9)] ([pGlu]VTFSRDWN-NH2) | 434.2 fold | 4150 | –
CC(C)[C@H](NC(=O)[C@@H]1CCC(=O)N1)C(=O)N[C@H](C(=O)N[C@@H](Cc1ccccc1)C(=O)N[C@@H](CO)C(=O)N[C@@H](CCCNC(=N)N)C(=O)N[C@@H](CC(=O)O)C(=O)N[C@@H](Cc1c[nH]c2ccccc12)C(=O)N[C@@H](CC(N)=O)C(=O)N[C@@H](C)C(=O)NCC(N)=O)[C@@H](C)O [Aedae-ACP (+G)] ([pGlu]VTFSRDWNAG-NH2) | 5.6 fold | 111 | –
C[C@H](NC(=O)[C@H](CC(N)=O)NC(=O)[C@H](Cc1c[nH]c2ccccc12)NC(=O)[C@H](CC(=O)O)NC(=O)[C@H](CCCNC(=N)N)NC(=O)[C@H](CO)NC(=O)[C@H](Cc1ccccc1)NC(=O)[C@@H](NC(=O)[C@H](C)NC(=O)[C@@H]1CCC(=O)N1)[C@@H](C)O)C(N)=O [Aedae-ACP (A2)] ([pGlu]ATFSRDWNA-NH2) | – | 705 | –
CC(C)[C@H](NC(=O)[C@@H]1CCC(=O)N1)C(=O)N[C@H](C(=O)N[C@@H](Cc1ccccc1)C(=O)N[C@@H](C)C(=O)N[C@@H](CCCNC(=N)N)C(=O)N[C@@H](CC(=O)O)C(=O)N[C@@H](Cc1c[nH]c2ccccc12)C(=O)N[C@@H](CC(N)=O)C(=O)N[C@@H](C)C(N)=O)[C@@H](C)O [Aedae-ACP (A5)] ([pGlu]VTFARDWNA-NH2) | 44.9 fold | 1040 | –
CC(C)[C@H](NC(=O)[C@@H]1CCC(=O)N1)C(=O)N[C@H](C(=O)N[C@@H](Cc1ccccc1)C(=O)N[C@@H](CO)C(=O)N[C@@H](C)C(=O)N[C@@H](CC(=O)O)C(=O)N[C@@H](Cc1c[nH]c2ccccc12)C(=O)N[C@@H](CC(N)=O)C(=O)N[C@@H](C)C(N)=O)[C@@H](C)O [Aedae-ACP (A6)] ([pGlu]VTFSADWNA-NH2) | 23.3 fold | 687 | –
CC(C)[C@H](NC(=O)[C@@H]1CCC(=O)N1)C(=O)N[C@H](C(=O)N[C@@H](Cc1ccccc1)C(=O)N[C@@H](CO)C(=O)N[C@@H](CCCNC(=N)N)C(=O)N[C@@H](C)C(=O)N[C@@H](Cc1c[nH]c2ccccc12)C(=O)N[C@@H](CC(N)=O)C(=O)N[C@@H](C)C(N)=O)[C@@H](C)O [Aedae-ACP (A7)] ([pGlu]VTFSRAWNA-NH2) | 15.9 fold | 386 | –
CC(C)[C@H](NC(=O)[C@@H]1CCC(=O)N1)C(=O)N[C@H](C(=O)N[C@@H](Cc1ccccc1)C(=O)N[C@@H](CO)C(=O)N[C@@H](CCCNC(=N)N)C(=O)N[C@@H](CC(=O)O)C(=O)N[C@@H](Cc1c[nH]c2ccccc12)C(=O)N[C@@H](C)C(=O)N[C@@H](C)C(N)=O)[C@@H](C)O [Aedae-ACP (A9)] ([pGlu]VTFSRDWAA-NH2) | 0.2 fold | 4.96 | –
CC(C)C[C@H](NC(=O)[C@@H]1CCC(=O)N1)C(=O)N[C@@H](CC(N)=O)C(=O)N[C@@H](Cc1ccccc1)C(=O)N[C@H](C(=O)N1CCC[C@H]1C(=O)N[C@@H](CO)C(=O)N[C@@H](Cc1c[nH]c2ccccc12)C(N)=O)[C@@H](C)O [Erysi-AKH] ([pGlu]LNFTPSW-NH2) | – | – | Fold-reduction in activity relative to Aedae-AKH [2]: 310 fold and 309.9 fold; EC50 [2]: 669 nM
CC[C@H](C)[C@H](NC(=O)[C@@H]1CCC(=O)N1)C(=O)N[C@H](C(=O)N[C@@H](Cc1ccccc1)C(=O)N[C@@H](CO)C(=O)N[C@@H](CCCNC(=N)N)C(=O)N[C@@H](CC(=O)O)C(=O)N[C@@H](Cc1c[nH]c2ccccc12)C(=O)N[C@@H](CC(N)=O)C(=O)N[C@@H](C)C(N)=O)[C@@H](C)O [Grybi-ACP] ([pGlu]ITFSRDWNA-NH2) | 13.6 fold | 326 | Activity on ACPR at the highest tested dose, in words [1]: failed to reach full ACPR activation
CC(C)[C@H](NC(=O)[C@@H]1CCC(=O)N1)C(=O)N[C@@H](CC(N)=O)C(=O)N[C@@H](Cc1ccccc1)C(=O)N[C@@H](CO)C(=O)N[C@H](C(=O)NCC(=O)N[C@@H](Cc1c[nH]c2ccccc12)C(N)=O)[C@@H](C)O [Grybi-AKH] ([pGlu]VNFSTGW-NH2) | – | – | EC50 [2]: 2230 nM
CC(C)C[C@H](NC(=O)[C@@H]1CCC(=O)N1)C(=O)N[C@H](C(=O)N[C@@H](Cc1ccccc1)C(=O)N[C@H](C(=O)N[C@@H](CO)C(=O)N[C@@H](CO)C(=O)N[C@@H](Cc1c[nH]c2ccccc12)C(N)=O)[C@@H](C)O)[C@@H](C)O [Hipes-AKH-I] ([pGlu]LTFTSSW-NH2) | – | – | Fold-reduction in activity relative to Aedae-AKH [2]: 7.6 fold; EC50 [2]: 16.5 nM
CC(C)[C@H](NC(=O)[C@@H]1CCC(=O)N1)C(=O)N[C@@H](CC(N)=O)C(=O)N[C@@H](Cc1ccccc1)C(=O)N[C@H](C(=O)N1CCC[C@H]1C(=O)N[C@@H](CO)C(=O)N[C@@H](Cc1c[nH]c2ccccc12)C(N)=O)[C@@H](C)O [Libau-AKH] ([pGlu]VNFTPSW-NH2) | – | – | Fold-reduction in activity relative to Aedae-AKH [2]: 548 fold and 547.9 fold; EC50 [2]: 1180 nM; Improved AKHR-IA activation over that achieved by Grybi-AKH ([2]; relative to Grybi-AKH): ~2 fold
CC(C)C[C@H](NC(=O)[C@@H]1CCC(=O)N1)C(=O)N[C@H](C(=O)N[C@@H](Cc1ccccc1)C(=O)N[C@H](C(=O)N1CCC[C@H]1C(=O)N[C@@H](CC(N)=O)C(=O)N[C@@H](Cc1c[nH]c2ccccc12)C(N)=O)[C@@H](C)O)[C@@H](C)O [Peram-CAH-II] ([pGlu]LTFTPNW-NH2) | – | – | Fold-reduction in activity relative to Aedae-AKH [2]: 1.0 fold; EC50 [2]: 2.23 nM
Ac-AVTFSRDWNA-NH2 [Aedae-ACP (A1b)] | 43.6 fold | 527 | –
H-AVTFSRDWNA-NH2 [Aedae-ACP (A1)] | – | 1580 | –
pQ-TFSRDWNAamide [Aedae-ACP (1,3-10), internally truncated ACP analog lacking valine in the second position] | >1,000 fold | – | –
pQLTFSSGWGNamide [Helze-AKH, naturally-occurring insect AKH decapeptide] | >1,000 fold | – | Activity on ACPR at the highest tested dose, in words [1]: low activity
pQLTFTPSWamide [Aedae-AKH, endogenous octapeptide adipokinetic hormone of Aedes aegypti] | – | – | Activity on ACPR at the highest tested dose, in words [1]: inactive
pQLTFTSSWGGamide [Lacol-AKH, naturally-occurring insect AKH decapeptide] | >1,000 fold | – | Activity on ACPR at the highest tested dose, in words [1]: low activity
pQVTASRDWNAamide [Aedae-ACP (A4), synthetic ACP analog, alanine at position 4] | >1,000 fold | – | –
pQVTFSRDANAamide [Aedae-ACP (A8), synthetic ACP analog, alanine at position 8] | >1,000 fold | – | –
pQVTFSRDWNA-OH [Aedae-ACP (-OH), non-amidated (free acid) ACP analog] | >1,000 fold | – | –
